# Data reported in US20260167659A1, “STING AGONISTS” (LIGACHEM BIOSCIENCES INC., priority 2022, published 2026).
# Key:
# [1] = Normal cell cytotoxicity in CD34+ HSC, CellTiter-Glo; type: cell-based; conditions: human, CD34+ hematopoietic stem cells (HSCs), read-out: In vitro cell cytotoxicity in CD34+ HSC CC50
# Method: The CD34^+ hematopoietic stem cells (HSCs) were purchased from […]™ (#70002.3). The cells (2×10^4 cells per well) were cultured in StemSpan™ SFEM II medium supplemented with StemSpan™ CD34+ Expansion Supplement (#02691) in a 6-well plate at 37° C. for 7 days. On day 3 or 4, an equal volume of fresh complete medium was added into the cell culture. On day 7, the cells (4×10^4 cells per well) were seeded in a 96-well white plate and rested for 24 hours in the same condition.
# After 72 hours, the cell viability was measured using CellTiter-Glo Luminescent Cell Viability Assay (Promega, #G7573) according to the manufacture's instruction. The signal was detected using an EnVision Xcite multilabel reader and data were analyzed using GraphPad Prism 8 software.
# [2] = Normal cell cytotoxicity in PBMCs, CellTiter-Glo; type: cell-based; conditions: human, read-out: In vitro cell cytotoxicity in PBMCs CC50
# Method: PBMCs were also purchased from […]™ (#700025.2). The cells (8.0×10^4 cells per well) were seeded in a flat-bottomed 96-well plate in RPMI 1640 medium (Gibco, #22400097) with 10% heat-inactivated FBS and 1× Antibiotic-Antimycotic (Gibco, #15240062) and rested for 24 hours at 37° C. […] After 72 hours, the cell viability was measured using CellTiter-Glo Luminescent Cell Viability Assay (Promega, #G7573) according to the manufacture's instruction. The signal was detected using an EnVision Xcite multilabel reader and data were analyzed using GraphPad Prism 8 software.
# To verify the effect of the STING agonist compounds in normal cell cytotoxicity, the PBMCs were treated with the STING agonist compounds for 3 days and measured the percentage of cell death.
# [3] = Plasma pharmacokinetics in naive Balb/C mouse, LC-MS/MS; type: in vivo; conditions: 1.5 mg/kg single IV; for AUC∞, norm / Cmax, norm: n = 3, dose-normalised; for AUC(0-inf) / AUC(0-t) / C0 / Cmax / clearance / half-life / Vd: female; for AUC(0-inf) / AUC(0-t) / C0 / Cmax: n = 3, plasma; for clearance / half-life / Vd: plasma; for clearance / half-life: n = 3; for Vd: n = 3, read-out: VSS
# Method: For in vivo evaluation of STING agonist compounds described herein in naïve Balb/C mouse, single doses of STING agonist compounds were given at 1.5 mg/kg intravenously into female BALB/c mice (Orientbio, South Korea) at 6-8 weeks of age. Pharmacokinetics were studied following injection of the STING agonist compounds into Balb/C mice. Plasma samples were taken at various time points and stored frozen for analysis. The plasma concentrations of the STING agonist compounds at the indicated time points were measured using a LC-MS/MS analysis method.
# Briefly, 250 μL of acetonitrile (ACN) solution was added in both 50 μL of sample and 50 μL of plasma containing 10 nM Dextromethorphan (internal standard), and the solutions were mixed vigorously using a vortex mixer for 5 minutes. The samples were then spun down at 14,000 rpm, 4° C. for 5 minutes. 100 μL of supernatants were combined with 100 μL of mobile phase A (0.1% formic acid in water with 5% ACN) and mixed thoroughly. The samples were measured for the STING agonist compounds using a LC-MS/MS (Nexera LC40 (SHIMADZU) and QTRAP4500 (SCIEX)).
# [4] = molecular target: T1, hSTING-WT (R232) (Homo sapiens, UniProt Q86WV6, H232R); assay: STING activation, THP1-Dual IRF3 reporter assay, hSTING-R232 cells; type: cell-based; conditions: IRF3 luciferase reporter, 24 hours, read-out: STING activity using hSTING-R232 cells EC50
# T1 construct: host or cells: THP1-Dual cells (human monocytes) with knocked-in hSTING R232
# Method: (§1) To assess potency of STING agonist compounds described herein, THP1-Dual™ Cells (NF—KB-SEAP and IRF-Lucia luciferase reporter monocytes, InvivoGen) were used. The reporter cells were knocked-in either of hSTING-WT (R232, #thpd-r232), HAQ variant (#thpd-nfis), or H232 variant (#thpd-h232). All cells were cultured at 37° C. in a humidified incubator at 5% CO2 and maintained in RPMI 1640 medium (Gibco, #22400097) supplemented with 10% heat-inactivated FBS and 1×Pen-Strep (Gibco, #15140122). To measure STING agonist-mediated IRF3 activity, the cells (9.0×10^4 cells per well) were seeded in a flat-bottomed 96-well plate. The next day, the cells were treated with compounds in a serial dilution for 24 hours. Subsequently, 20 μL of the cell culture supernatant and 50 μL of the QUANTI-Luc™ reagent (InvivoGen, #rep-qlc) were mixed in a 96-well white plate and then, luciferase activity was measured using an EnVision Xcite multilabel reader. The data were analyzed using Prism8 software (4-parameter).
# (§2) The potency of STING agonist compounds was evaluated by the activation of Type I Interferon pathway using THP-1 IRF3 reporter assay.
# [5] = molecular target: T2, hSTING H232 variant (Homo sapiens, UniProt Q86WV6); assay: STING activation, THP1-Dual IRF3 reporter assay, hSTING-H232 cells; type: cell-based; conditions: IRF3 luciferase reporter, 24 hours, read-out: STING activity using hSTING-H232 cells, H232 EC50
# T2 construct: host or cells: THP1-Dual cells (human monocytes) with knocked-in hSTING H232
# Method: as §1, §2
# [6] = molecular target: T3, hSTING HAQ variant (Homo sapiens, UniProt Q86WV6, G230A/H232R/R293Q/R71H); assay: STING activation, THP1-Dual IRF3 reporter assay, hSTING-HAQ cells; type: cell-based; conditions: IRF3 luciferase reporter, 24 hours, read-out: STING activity using hSTING-HAQ cells, HAQ EC50
# T3 construct: host or cells: THP1-Dual cells (human monocytes)
# Method: as §1, §2
# [7] = molecular target: T4, human STING (Homo sapiens, UniProt Q86WV6, H232R); assay: Direct STING binding, HUMAN STING WT BINDING KIT (Cisbio); conditions: direct binding to human STING WT protein in vitro; read-out: Binding potency EC50
# T4 construct: purchased Cisbio 64BDSTGPEG
# From the text: Additionally, for analysis of direct binding potency of STING agonist compounds described herein to human STING, HUMAN STING WT BINDING KIT (Cisbio, #64BDSTGPEG) was used according to the manufacture's instruction.
# T1 sequence (Q86WV6 whole entry H232R): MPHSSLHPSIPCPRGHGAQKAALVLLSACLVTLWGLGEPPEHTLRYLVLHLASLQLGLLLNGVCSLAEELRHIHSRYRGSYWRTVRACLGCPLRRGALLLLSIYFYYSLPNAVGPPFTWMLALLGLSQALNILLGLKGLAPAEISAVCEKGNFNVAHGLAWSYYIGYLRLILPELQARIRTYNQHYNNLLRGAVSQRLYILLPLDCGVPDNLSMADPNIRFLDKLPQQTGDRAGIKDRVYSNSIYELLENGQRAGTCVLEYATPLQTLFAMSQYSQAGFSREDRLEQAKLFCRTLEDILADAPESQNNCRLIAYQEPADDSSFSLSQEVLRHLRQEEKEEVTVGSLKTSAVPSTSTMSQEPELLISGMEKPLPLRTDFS
# T4 sequence (Q86WV6 whole entry H232R): as above
# T3 sequence (Q86WV6 whole entry R71H/G230A/H232R/R293Q): as the sequence (Q86WV6 whole entry H232R) above, with R71H, G230A, R293Q counted along it
Structure (SMILES),"AUC∞, norm [3]","Cmax, norm [3]",AUC(0-inf) [3],AUC(0-t) [3],C0 [3],Cmax [3],clearance [3],half-life [3],Vd [3],EC50 [4],EC50 [5],EC50 [6],EC50 [7],CC50 at 72 h [1],CC50 at 72 h [2]
"CCn1nc(C)cc1C(=O)Nc1nc2cc(C(N)=O)cc(OC)c2n1C/C=C/Cn1c(NC(=O)c2cc(C)nn2CC)nc2cc(C(N)=O)cc(OCCCN3CCOCC3)c21 [Comparative #1, reference compound]",0.66 ± 0.07 kg·h/L,1.94 ± 0.30 kg/L,990 ± 100 ng·h/mL,980 ± 100 ng·h/mL,4630 ± 860 ng/mL,2910 ± 450 ng/mL,25.5 mL/min/kg,54.6 ± 2.4 min,0.7 ± 0.15 L/kg,,,,,2.1 nM,3.34 nM
"CCc1nc(C)oc1C(=O)Nc1nc2cc(C(N)=O)cnc2n1C/C=C/Cn1c(NC(=O)c2oc(C)nc2CC)nc2cc(C(N)=O)cc(OCCCO)c21 [Comparative #2, reference compound]",0.05 ± 0.01 kg·h/L,0.16 ± 0.02 kg/L,80 ± 10 ng·h/mL,70 ± 10 ng·h/mL,380 ± 50 ng/mL,240 ± 30 ng/mL,328 mL/min/kg,12 ± 1.8 min,5.1 ± 1.01 L/kg,213 nM,36.6 nM,213 nM,0.13 nM,,6.28 nM
CCn1nc(C)cc1C(=O)Nc1nc2cc(C(N)=O)cc(OC)c2n1C/C=C/Cn1c(NC(=O)c2cc(C)nn2CC)nc2cc(C(N)=O)cc(OC/C=C/CN3CCN(C(=O)OCc4ccc(O[C@@H]5O[C@H](C(=O)O)[C@@H](O)[C@H](O)[C@H]5O)c(C(=O)NCCOCCOCCO)c4)CC3=O)c21 [Compound 302],,,,,,,,,,46.7 nM,96.6 nM,83.5 nM,0.38 nM,21.5 nM,59.2 nM
CCn1nc(C)cc1C(=O)Nc1nc2cc(C(N)=O)cc(OC)c2n1C/C=C/Cn1c(NC(=O)c2cc(C)nn2CC)nc2cc(C(N)=O)cc(OC/C=C/CN3CCN(C(=O)OCc4ccc(O[C@@H]5O[C@H](C(=O)O)[C@@H](O)[C@H](O)[C@H]5O)c(C(=O)NCCOCCOCCN(C)C)c4)CC3=O)c21 [Compound 309],,,,,,,,,,31.2 nM,70.4 nM,52 nM,0.4 nM,,44.3 nM
CCn1nc(C)cc1C(=O)Nc1nc2cc(C(N)=O)cc(OC)c2n1C/C=C/Cn1c(NC(=O)c2cc(C)nn2CC)nc2cc(C(N)=O)cc(OC/C=C/CN3CCCN3C(=O)OCc3ccc(O[C@@H]4O[C@H](C(=O)O)[C@@H](O)[C@H](O)[C@H]4O)c(C(=O)NCCOCCOCCN(C)C)c3)c21 [Compound 424],,,,,,,,,,72 nM,117 nM,517 nM,1.6 nM,30.6 nM,147 nM

# The next lines start with results.
"AUC∞, norm [3]","Cmax, norm [3]",AUC(0-inf) [3],AUC(0-t) [3],C0 [3],Cmax [3],clearance [3],half-life [3],Vd [3],EC50 [4],EC50 [5],EC50 [6],EC50 [7],Structure (SMILES),CC50 at 72 h [1],CC50 at 72 h [2]
9.89 ± 0.90 kg·h/L,4.11 ± 0.28 kg/L,14800 ± 1340 ng·h/mL,14800 ± 1350 ng·h/mL,6500 ± 490 ng/mL,6160 ± 420 ng/mL,1.67 mL/min/kg,168 ± 16.2 min,0.32 ± 0.03 L/kg,39.2 nM,96.7 nM,108 nM,,CCn1nc(C)cc1C(=O)Nc1nc2cc(C(N)=O)cc(OC)c2n1C/C=C/Cn1c(NC(=O)c2cc(C)nn2CC)nc2cc(C(N)=O)cc(OC/C=C/Cn3cc(NC(=O)OCc4ccc(O[C@@H]5O[C@H](C(=O)O)[C@@H](O)[C@H](O)[C@H]5O)c(C(=O)NCCC(=O)O)c4)cn3)c21 [Compound 281],,127 nM
,,,,,,,,,403 nM,,,0.8 nM,CCn1nc(C)cc1C(=O)Nc1nc2cc(C(N)=O)cc(NC/C=C/Cn3cc(N(CCC(=O)O)C(=O)OCc4ccc(O[C@@H]5O[C@H](C(=O)O)[C@@H](O)[C@H](O)[C@H]5O)c(C(=O)NCCOCCOCCN(C)C)c4)cn3)c2n1C/C=C/Cn1c(NC(=O)c2cc(C)nn2CC)nc2cc(C(N)=O)cc(OC)c21 [Compound 363],86.1 nM,
,,,,,,,,,240 nM,,,,CCn1nc(C)cc1C(=O)Nc1nc2cc(C(N)=O)cc(OC/C=C/Cn3cc(NC(=O)OCc4ccc(O[C@@H]5O[C@H](C(=O)O)[C@@H](O)[C@H](O)[C@H]5O)c(C(=O)NCCOCCOCCO[C@@H]5O[C@H](C(=O)O)[C@@H](O)[C@H](O)[C@H]5O)c4)cn3)c2n1C/C=C/Cn1c(NC(=O)c2cc(C)nn2CC)nc2cc(C(N)=O)cc(OCCCC(=O)O)c21 [Compound 396],156 nM,
,,,,,,,,,45 nM,119 nM,477 nM,0.92 nM,CCn1nc(C)cc1C(=O)Nc1nc2cc(C(N)=O)cc(OC)c2n1C/C=C/Cn1c(NC(=O)c2cc(C)nn2CC)nc2cc(C(N)=O)cc(OC/C=C/CN3CCCN3C(=O)OCc3ccc(O[C@@H]4O[C@H](C(=O)O)[C@@H](O)[C@H](O)[C@H]4O)c(C(=O)NCCOCCOCCO)c3)c21 [Compound 422],32.1 nM,207 nM
